Experiments:
[1] = tested on: IL-2 secretion from Jurkat T cells; experiment: IL-2 secretion from activated Jurkat T cells (ELISA); type: cell-based, human; details: for IL-2 [ ]pg/ml (1) / IL-2 % Control (1): experiment (1); for IL-2 % Control (1) / IL-2 % Control (2) / IL-2 % Control (3): relative to DMSO 0.1%; for IL-2 [ ]pg/ml (2) / IL-2 % Control (2): experiment (2); for IL-2 [ ]pg/ml (3) / IL-2 % Control (3): experiment (3)
Experimental: The T cell line Jurkat 6.1 (ATCC) was used. Cells were pre-treated for 30 min with 1 μM or 10 μM of the respective compound and then stimulated with plate-bound anti-CD3 (BD Pharmingen) and anti-CD28 (AnCell). DMSO was used as vehicle control. The immunosuppressive agent Cyclosporine A was used as a control for inhibition of IL-2 production. After 24 hs the supernatant was collected and IL-2 secretion was measured by ELISA.
Jurkat T cells were cultured in RMPI-1640 medium containing 10 % Foetal Bovine Serum, Penicillin/Streptomycin and L-Glutamine in T-75cm2 flasks at 37° C. and 5 % CO2. Cells were seeded into new culture flasks at a density of 1-3×10^5 cells per ml and maintained at a density of 0.5−1×10^6 cells per ml.
(§1) (A) Anti-TCR/CD28-mediated activation of Jurkat cells: Experiments involving anti-TCR/CD28-mediated activation of Jurkat T lymphocytes were carried out on 24-well cell culture plates. The plates were coated with a 1/100 dilution of rabbit anti-mouse IgG in sterile PBS (1×) and incubated overnight at 4OC. Unbound antibody was aspirated and the wells were gently rinsed with warm sterile PBS. The PBS was aspirated and the wells were coated with a 1/100 dilution of anti-TCR antibody (OKT-3) and a 1/200 dilution of anti-CD28 antibody (both antibodies pre-mixed prior to addition to the plates) in sterile PBS. The plates were then incubated for 1-2 hours at 37° C. Unbound antibody was aspirated and the wells were gently rinsed with warm PBS. The PBS was left on the plate until the Jurkat cells were ready to be added to the plate. The Jurkat cells were harvested from the T-75cm2 cell culture flasks and resuspended at a density of 0.5×10^6 cells per ml. The compounds were dissolved at a specified stock concentration (see results section) and diluted to the required concentration by adding the drug to the cell suspension. The cells were then pre-incubated with the compounds or with an equivalent volume of drug vehicle control (DMSO) for 30 minutes prior to adding the cell suspension to the antibody-coated plates. Cyclosporine A (1 μM) was used as a positive control to inhibit IL-2 production from activated T cells and was preincubated with the 6 cells as described above in parallel. The cells were then incubated on the plates with the acti-TCR/CD28 antibodies for 24 hours at 37° C. and 5% CO2 in a humidified atmosphere. After 24 hours, the cell suspension was removed from the plates and the cells were pelleted by centrifugation. The cell culture supernatant was saved and analysed for secreted IL-2 by ELISA. The cell pellet was saved and cell viability was measured using Acridine Orange/Ethidium Bromide cell viability staining solution.
(B) PHA/PMA-mediated activation of Jurkat cells Jurkat cells were resuspended at a concentration of 0.5×10^6 cells per ml and the Pharmatrin compounds at the desired concentration or an equivalent volume of drug vehicle control (DMSO) were added to the cells and incubated for 30 minutes. Cyclosporine A (1 ∝M) was used as a positive control to inhibit IL-2 production from activated T cells and was preincubated with the cells as described above in parallel. PHA and PMA were added to the cell suspension (10 ∝g/ml and 10 ng/ml respectively) and the cells were plated onto uncoated 24-well plates. The cells were incubated on the plates for 24 hours at 37° C. and 5 % CO2 in a humidified atmosphere. After 24 hours, the cell suspension was removed from the plates and the cells were pelleted by centrifugation. The cell culture supernatant was saved and analysed for secreted IL-2 by ELISA.
The cell culture supernatants were analysed for IL-2 by ELISA (96-well plate format) using the Human IL-2 ELISA kit from R&D Systems Europe. This assay was carried out using the standard protocol outlined by the company. Samples and standards (recombinant human IL-2 provided by R&D Systems) were analysed in triplicate. […]

Jurkat cells = experiment: Jurkat cell viability (Acridine Orange/Ethidium Bromide); type: cell-based
Experimental: as §1
The cell pellet was resuspended in 20 μl of Acridine Orange/Ethidium Bromide staining solution. A portion of this cell suspension was placed on a haemocytometer and analysed under a fluorescence microscope. […] The ratio of viable cells: non-viable cells were calculated for each activation time point/drug treatment.

Balb/C mice = experiment: 5% DSS-induced murine colitis model; type: in vivo, mouse; details: for inhibition of DAI in DSS-induced colitis: 5% DSS colitis (FIG. 9); for effect on DSS-induced weight loss: 5% DSS colitis, 30 mg/kg p.o. (FIG. 8)

Row | Compound | IL-2 [ ]pg/ml (1) ([1]; 0.3 uM) | IL-2 % Control (1) ([1]; 0.3 uM) | IL-2 [ ]pg/ml (2) ([1]; 0.3 uM) | IL-2 % Control (2) ([1]; 0.3 uM) | IL-2 [ ]pg/ml (3) ([1]; 0.3 uM) | IL-2 % Control (3) ([1]; 0.3 uM) | IL-2 [ ]pg/ml (1) ([1]; 1 uM) | IL-2 % Control (1) ([1]; 1 uM) | IL-2 [ ]pg/ml (2) ([1]; 1 uM) | IL-2 % Control (2) ([1]; 1 uM) | IL-2 [ ]pg/ml (3) ([1]; 1 uM) | IL-2 % Control (3) ([1]; 1 uM) | IL-2 [ ]pg/ml (1) ([1]; 3 uM) | IL-2 % Control (1) ([1]; 3 uM) | IL-2 [ ]pg/ml (2) ([1]; 3 uM) | IL-2 % Control (2) ([1]; 3 uM) | IL-2 [ ]pg/ml (3) ([1]; 3 uM) | IL-2 % Control (3) ([1]; 3 uM) | IL-2 [ ]pg/ml (1) ([1]; 10 uM) | IL-2 % Control (1) ([1]; 10 uM) | other results
1 | (R,S or SR)2-Benzyl-2,3-dihydro-1H,1′H-2,2′-biinden-1-ol [Compound 7] | 44.65 pg/mL | 218.87% | 93.65 pg/mL | 143.42% | 112.94 pg/mL | 85.85% | 49.20 pg/mL | 241.18% | 71.40 pg/mL | 109.34% | 109.59 pg/mL | 83.31% | 43.25 pg/mL | 212.01% | 45.10 pg/mL | 69.07% | 97.25 pg/mL | 73.92% | 24.75 pg/mL | 121.32% | IL2 release from Jurkat cells [1]: inhibited IL2 release; IL-2 [ ]pg/ml (2) ([1]; 10 uM): 36.75 pg/mL; IL-2 % Control (2) ([1]; 10 uM): 56.28%; IL-2 [ ]pg/ml (3) ([1]; 10 uM): 81.84 pg/mL; IL-2 % Control (3) ([1]; 10 uM): 62.21%; IL-2 [ ]pg/ml (1) ([1]; 30 uM): 10.10 pg/mL; IL-2 % Control (1) ([1]; 30 uM): 49.51%; IL-2 [ ]pg/ml (2) ([1]; 30 uM): 27.80 pg/mL; IL-2 % Control (2) ([1]; 30 uM): 42.57%; IL-2 [ ]pg/ml (3) ([1]; 30 uM): 32.00 pg/mL; IL-2 % Control (3) ([1]; 30 uM): 24.32%; IL-2 [ ]pg/ml (1) ([1]; 100 uM): 1.15 pg/mL; IL-2 % Control (1) ([1]; 100 uM): 5.64%; IL-2 [ ]pg/ml (2) ([1]; 100 uM): -19.30 pg/mL; IL-2 % Control (2) ([1]; 100 uM): −29.56%; IL-2 [ ]pg/ml (3) ([1]; 100 uM): -3.13 pg/mL; IL-2 % Control (3) ([1]; 100 uM): −2.38%; cell viability (Jurkat cells): without affecting cell viability
2 | O[C@@H]1c2ccccc2C[C@@]1(Cc1ccccc1)C1=Cc2ccccc2C1 (single isomer, unassigned) [Compound 10] | 79.17 pg/mL | 108.41% | 88.15 pg/mL | 134.99% | 58.63 pg/mL | 44.56% | 64.17 pg/mL | 87.87% | 57.50 pg/mL | 88.06% | 104.44 pg/mL | 79.39% | 71.39 pg/mL | 97.76% | 54.15 pg/mL | 82.92% | 100.50 pg/mL | 76.39% | 42.50 pg/mL | 58.20% | IL-2 [ ]pg/ml (2) ([1]; 10 uM): 45.60 pg/mL; IL-2 % Control (2) ([1]; 10 uM): 69.83%; IL-2 [ ]pg/ml (3) ([1]; 10 uM): 80.25 pg/mL; IL-2 % Control (3) ([1]; 10 uM): 61.00%; IL-2 [ ]pg/ml (1) ([1]; 30 uM): 14.17 pg/mL; IL-2 % Control (1) ([1]; 30 uM): 19.40%; IL-2 [ ]pg/ml (2) ([1]; 30 uM): 56.70 pg/mL; IL-2 % Control (2) ([1]; 30 uM): 86.83%; IL-2 [ ]pg/ml (3) ([1]; 30 uM): 46.06 pg/mL; IL-2 % Control (3) ([1]; 30 uM): 35.01%; IL-2 [ ]pg/ml (1) ([1]; 100 uM): -11.33 pg/mL; IL-2 % Control (1) ([1]; 100 uM): −15.52%; IL-2 [ ]pg/ml (2) ([1]; 100 uM): -6.30 pg/mL; IL-2 % Control (2) ([1]; 100 uM): −9.65%; IL-2 [ ]pg/ml (3) ([1]; 100 uM): -0.78 pg/mL; IL-2 % Control (3) ([1]; 100 uM): −0.59%; inhibition of DAI in DSS-induced colitis (Balb/C mice): significant (P<0.0059) inhibition; effect on DSS-induced weight loss (Balb/C mice): ameliorated; disease activity index (DAI) (Balb/C mice; day 7, mean±SEM, vehicle control 6.833±1.276): 2.333±0.211
3 | O[C@H]1c2ccccc2C[C@]1(Cc1ccccc1)C1=Cc2ccccc2C1 (single isomer, unassigned) [Compound 9] | 111.72 pg/mL | 152.99% | 73.45 pg/mL | 112.48% | 139.63 pg/mL | 106.13% | 120.56 pg/mL | 165.09% | 65.45 pg/mL | 100.23% | 114.13 pg/mL | 86.75% | 78.78 pg/mL | 107.88% | 81.75 pg/mL | 59.11% | 53.47 pg/mL | 40.64% | 37.72 pg/mL | 51.66% | IL-2 [ ]pg/ml (2) ([1]; 10 uM): 85.60 pg/mL; IL-2 % Control (2) ([1]; 10 uM): 131.09%; IL-2 [ ]pg/ml (3) ([1]; 10 uM): 36.16 pg/mL; IL-2 % Control (3) ([1]; 10 uM): 27.48%; IL-2 [ ]pg/ml (1) ([1]; 30 uM): -4.56 pg/mL; IL-2 % Control (1) ([1]; 30 uM): −6.24%; IL-2 [ ]pg/ml (2) ([1]; 30 uM): 16.35 pg/mL; IL-2 % Control (2) ([1]; 30 uM): 25.04%; IL-2 [ ]pg/ml (3) ([1]; 30 uM): -3.88 pg/mL; IL-2 % Control (3) ([1]; 30 uM): −2.95%; IL-2 [ ]pg/ml (1) ([1]; 100 uM): -3.72 pg/mL; IL-2 % Control (1) ([1]; 100 uM): −5.10%; IL-2 [ ]pg/ml (2) ([1]; 100 uM): -5.75 pg/mL; IL-2 % Control (2) ([1]; 100 uM): −8.81%; IL-2 [ ]pg/ml (3) ([1]; 100 uM): -5.28 pg/mL; IL-2 % Control (3) ([1]; 100 uM): −4.01%; inhibition of DAI in DSS-induced colitis (Balb/C mice): only the S,S-enantiomer 10 caused a significant; effect on DSS-induced weight loss (Balb/C mice): not

Reference: US20150141523A1, “COMPOUNDS FOR USE IN THE TREATMENT OF AUTOIMMUNE INFLAMMATORY DISEASE” (Venantius Limited, priority 2012, published 2015)
